# According to patent publication US20240124503A1, “HETEROAROMATIC PHOSPHONIUM SALTS AND THEIR USE TREATING CANCER” (FLORATEK PHARMA S.A., priority 2021, published 2024):
# Key:
# A549 = test: Cell viability assay, A549; assay type: cell-based; details: Homo sapiens; lung carcinoma cell line A549
# Method: (§1) Antitumor activity of the compounds and doxorubicin as a positive control was assessed by using the CellTiter-Blue Cell Viability Assay (Promega, #G8082) or CellTiter-Glow® Luminescent Cell Viability assay (Promega #G7572) according to the manufacturer's instructions. The compounds were tested at 5 or 6 concentrations in half-log increments (highest concentration 30 μM or 100 μM) in duplicate or triplicate well conditions.
# (§2) Tumor cells were grown at 37° C. in a humidified atmosphere with 5% CO2 in RPMI 1640 or DMEM medium, supplemented with 10% (v/v) fetal calf serum and 50 μg/ml gentamicin for up to 20 passages, and were passaged once or twice weekly. Cells were harvested using TrypLE or PBS buffer containing 1 mM EDTA, and the percentage of viable cells was determined using a CASY Model TI cell counter (OMNI Life Science). Cells were harvested from exponential phase cultures, counted and plated in 96 well flat-bottom microtiter plates at a cell density depending on the cell line's growth rate (4,000-20,000 cells/well depending on the cell line's growth rate, up to 60,000 for hematological cancer cell lines) in RPMI 1640 or DMEM medium supplemented with 10% (v/v) fetal calf serum and 50 μg/ml gentamicin (140 μl/well). […] Viability of cells was quantified by the CellTiter-Blue® cell viability assay (Promega G8081) or CellTiter-Glow® Luminescent Cell Viability assay (Promega #G7572). […]
# ADCK3 = biological target: T1, ADCK3 (Homo sapiens, UniProt Q8NI60); test: KINOMEscan competition binding, ADCK3
# T1 construct: purchased Eurofins (KINOMEscan); host or cells: E. coli BL21-derived host (T7 phage) or HEK-293
# T1 sequence (Q8NI60 163-647): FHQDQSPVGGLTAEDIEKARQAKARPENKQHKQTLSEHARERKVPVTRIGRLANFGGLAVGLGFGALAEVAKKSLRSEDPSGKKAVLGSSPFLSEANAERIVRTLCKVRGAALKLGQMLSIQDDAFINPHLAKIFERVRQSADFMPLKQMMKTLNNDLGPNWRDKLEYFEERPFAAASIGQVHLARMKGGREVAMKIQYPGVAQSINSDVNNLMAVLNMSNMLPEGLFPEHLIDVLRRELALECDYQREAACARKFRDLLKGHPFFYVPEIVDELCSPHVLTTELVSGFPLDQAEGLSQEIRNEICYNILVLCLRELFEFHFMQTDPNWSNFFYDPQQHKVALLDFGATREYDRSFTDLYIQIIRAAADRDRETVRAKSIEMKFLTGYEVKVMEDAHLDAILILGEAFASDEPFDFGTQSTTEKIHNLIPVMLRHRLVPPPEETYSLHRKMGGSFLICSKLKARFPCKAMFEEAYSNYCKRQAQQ
# Method: (§3) Selected compounds were screened for kinase inhibition using the KINOMEscan™ assay (Eurofins) which is based on a competition binding assay that quantitatively measures the ability of a compound to compete with an immobilized, active-site directed ligand. The assay was performed by combining three components: DNA-tagged kinase; immobilized ligand; and the test compound. The ability of the test compound to compete with the immobilized ligand was measured via quantitative PCR of the DNA tag.
# (§4) Kinase-tagged T7 phage strains were prepared in an E. coli host derived from the BL21 strain. E. coli were grown to log-phase and infected with T7 phage and incubated with shaking at 32° C. until lysis. The lysates were centrifuged and filtered to remove cell debris. The remaining kinases were produced in HEK-293 cells and subsequently tagged with DNA for qPCR detection. Streptavidin-coated magnetic beads were treated with biotinylated small molecule ligands for 30 minutes at room temperature to generate affinity resins for kinase assays. […] Kds were determined using an 11-point 3-fold compound dilution series with three DMSO control points. […] The kinase concentration in the eluates was measured by qPCR. […]
# (§5) Binding constants (Kds) were calculated with a standard dose-response curve using the Hill equation: Response=Background+[Signal−Background/1+(Kd^Hill Slope/Dose^Hill Slope)] […]
# CDK11 = biological target: T2, CDK11 (Homo sapiens, UniProt Q9BWU1); test: KINOMEscan competition binding, CDK11
# T2 construct: purchased Eurofins (KINOMEscan); host or cells: E. coli BL21-derived host (T7 phage) or HEK-293
# T2 sequence (Q9BWU1 whole entry): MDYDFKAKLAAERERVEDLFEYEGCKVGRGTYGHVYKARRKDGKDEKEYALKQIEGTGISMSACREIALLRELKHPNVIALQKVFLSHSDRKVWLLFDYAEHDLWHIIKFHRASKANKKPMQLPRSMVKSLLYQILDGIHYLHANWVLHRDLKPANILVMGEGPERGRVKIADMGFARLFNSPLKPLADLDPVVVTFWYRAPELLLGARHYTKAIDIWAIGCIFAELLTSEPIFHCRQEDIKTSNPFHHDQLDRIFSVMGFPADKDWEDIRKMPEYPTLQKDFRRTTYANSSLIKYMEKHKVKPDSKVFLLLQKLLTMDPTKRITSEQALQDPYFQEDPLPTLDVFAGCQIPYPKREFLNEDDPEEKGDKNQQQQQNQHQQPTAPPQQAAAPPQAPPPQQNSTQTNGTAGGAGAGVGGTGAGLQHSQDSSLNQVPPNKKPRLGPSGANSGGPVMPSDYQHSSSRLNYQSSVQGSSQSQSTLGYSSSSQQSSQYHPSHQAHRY
# Method: as §3, §4, §5
# TRKA = biological target: T3, TRKA (Homo sapiens, UniProt P04629); test: KINOMEscan competition binding, TRKA
# T3 construct: purchased Eurofins (KINOMEscan); host or cells: E. coli BL21-derived host (T7 phage) or HEK-293
# T3 sequence (P04629 33-796): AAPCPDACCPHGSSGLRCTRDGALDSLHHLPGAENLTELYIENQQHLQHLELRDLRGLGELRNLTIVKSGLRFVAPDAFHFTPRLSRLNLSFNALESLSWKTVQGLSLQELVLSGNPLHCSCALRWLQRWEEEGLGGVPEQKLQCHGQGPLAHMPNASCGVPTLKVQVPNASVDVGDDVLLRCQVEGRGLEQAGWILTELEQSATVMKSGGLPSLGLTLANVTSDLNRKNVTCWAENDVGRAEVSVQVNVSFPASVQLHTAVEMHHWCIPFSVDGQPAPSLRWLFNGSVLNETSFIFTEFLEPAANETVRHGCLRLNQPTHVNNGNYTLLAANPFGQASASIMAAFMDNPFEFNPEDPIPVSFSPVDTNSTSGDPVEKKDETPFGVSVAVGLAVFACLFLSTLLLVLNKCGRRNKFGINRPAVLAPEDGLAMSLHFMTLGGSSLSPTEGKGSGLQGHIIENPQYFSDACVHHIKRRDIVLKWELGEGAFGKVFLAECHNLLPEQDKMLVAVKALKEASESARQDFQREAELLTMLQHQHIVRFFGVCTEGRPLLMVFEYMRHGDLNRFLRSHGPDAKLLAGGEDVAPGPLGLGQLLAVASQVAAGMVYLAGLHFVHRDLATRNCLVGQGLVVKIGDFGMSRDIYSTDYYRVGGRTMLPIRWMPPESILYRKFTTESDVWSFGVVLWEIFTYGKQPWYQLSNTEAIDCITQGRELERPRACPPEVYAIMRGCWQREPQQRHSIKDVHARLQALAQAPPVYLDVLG
# Method: as §3, §4, §5
# brain cancer cell = test: Cell viability, brain cancer cells (panel statement); assay type: cell-based; details: text summary of Tables 3A-3C; read-out: IC50, brain cancer cell growth
# Method: as §1, §2
# Panc-1 = test: Cell viability assay, Panc-1; assay type: cell-based; details: pancreatic carcinoma cell line Panc-1
# Method: as §1, §2
IC50 (A549) [nM],Kd (ADCK3) [nM],Kd (CDK11) [nM],Kd (TRKA) [nM],IC50 (brain cancer cell) [nM],SMILES,IC50 (Panc-1) [nM]
13800,100,3600,2300,< 20000,"COc1c(O)ccc2c(=O)c(O)c(-c3ccc(CCCC[P+](c4ccccc4)(c4ccccc4)c4ccccc4)cc3)oc12 [SND190, (4-(4-(3,7-Dihydroxy-8-methoxy-4-oxo-4H1-chromen-2-yl)phenyl)butyl)triphenylphosphonium bromide]",–
–,–,–,–,–,"O=c1cc(-c2ccc(CCC[P+](c3ccccc3)(c3ccccc3)c3ccccc3)cc2)oc2c(O)c(O)ccc12 [SND200, (3-(4-(7,8-Dihydroxy-4-oxo-4H1-chromen-2-yl)phenyl)propyl)triphenylphosphonium bromide]",1330
